Six molecules from patent US20170119776A1, “CHIRAL 2,5-DISUBSTITUTED CYCLOPENTANECARBOXYLIC ACID DERIVATIVES AND USE THEREOF” (BAYER PHARMA AKTIENGESELLSCHAFT, priority 2014, published 2017) can be followed below.

Common to all, as to type: biochemical
One assay has as its target T1, MMP-8 (Homo sapiens, UniProt P22894).
T1 construct: purchased R&D Systems 908-MP
The assay can be described thus: In vitro MMP-8 inhibition test. From the text:
(§1) The activity strength of the compounds according to the invention towards other MMPs (and therefore their selectivity) is likewise ascertained in in vitro inhibition tests. The MMP-mediated amidolytic cleavage of a suitable peptide substrate also leads here to a fluorescent light increase. The signal intensity of the fluorescent light is directly proportional to the enzyme activity. The active concentration of a test compound at which half of the enzyme is inhibited (50% signal intensity of the fluorescent light) is given as IC50 value.
(§2) Recombinant MMP-8 (R&D Systems, 908-MP) is chemically activated in accordance with the manufacturer's instructions using APMA. 1 μl of the test compound to be analysed (as a solution in DMSO, suitable concentrations e.g. 1 nM to 30 μM) is pipette into 24 μl of activated enzyme (final concentration e.g. 0.5 nM) in reaction buffer (50 mM Tris/HCl pH 7.5, 10 mM CaCl2, 150 mM NaCl, 0.05% Brij®-35) in a white 384-hole microtiter plate (MTP). The enzymatic reaction is started by adding the intramolecularly quenched substrate Mca-Pro-Leu-Gly-Leu-Dpa(Dnp)-Ala-Arg-NH2 (final concentration e.g. 10 μM; R&D Systems, ES-001), such that a total test volume of 50 μl results. The progress of the MMP-8 reaction is measured by measuring the fluorescence intensity (excitation 320 nm, emission 410 nm) over a suitable period (e.g. over 120 min at a temperature of 32° C.).
(§3) The IC50 values were determined for racemates and enantiomers from differently generated DMSO stock solutions. Whereas an automatically produced DMSO stock solution from the internal substance logistics was used for racemates by means of a standard method, in the case of enantiomers a freshly produced, manually prepared DMSO stock solution was used in each case for a more precise direct comparison of the enantiomers with one another.

For another assay, the target named is T2, MMP-1 (Homo sapiens, UniProt P03956).
T2 construct: purchased R&D Systems 901-MP
T2 sequence (P03956 100-469): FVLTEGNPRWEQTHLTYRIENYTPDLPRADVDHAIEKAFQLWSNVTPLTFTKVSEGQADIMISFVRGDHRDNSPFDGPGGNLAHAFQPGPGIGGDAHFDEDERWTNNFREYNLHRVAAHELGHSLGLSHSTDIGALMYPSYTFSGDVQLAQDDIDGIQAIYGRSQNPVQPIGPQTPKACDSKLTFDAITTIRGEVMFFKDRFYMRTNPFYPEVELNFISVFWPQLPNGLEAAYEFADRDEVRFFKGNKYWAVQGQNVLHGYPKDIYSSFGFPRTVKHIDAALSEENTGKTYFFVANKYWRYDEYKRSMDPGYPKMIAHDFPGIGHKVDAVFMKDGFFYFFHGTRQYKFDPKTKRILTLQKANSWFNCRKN
As to the kind of experiment: In vitro MMP-1 inhibition test.
Text: as §1
as §2, with “MMP-1” for “MMP-8”, “901-MP)” for “908-MP)”, “instructions by” for “instructions”, “pipetted” for “pipette”, “2” for “0.5”
as §3

A further assay addresses T3, MMP-2 (Homo sapiens, UniProt P08253).
T3 construct: purchased R&D Systems 902-MP
T3 sequence (P08253 110-660): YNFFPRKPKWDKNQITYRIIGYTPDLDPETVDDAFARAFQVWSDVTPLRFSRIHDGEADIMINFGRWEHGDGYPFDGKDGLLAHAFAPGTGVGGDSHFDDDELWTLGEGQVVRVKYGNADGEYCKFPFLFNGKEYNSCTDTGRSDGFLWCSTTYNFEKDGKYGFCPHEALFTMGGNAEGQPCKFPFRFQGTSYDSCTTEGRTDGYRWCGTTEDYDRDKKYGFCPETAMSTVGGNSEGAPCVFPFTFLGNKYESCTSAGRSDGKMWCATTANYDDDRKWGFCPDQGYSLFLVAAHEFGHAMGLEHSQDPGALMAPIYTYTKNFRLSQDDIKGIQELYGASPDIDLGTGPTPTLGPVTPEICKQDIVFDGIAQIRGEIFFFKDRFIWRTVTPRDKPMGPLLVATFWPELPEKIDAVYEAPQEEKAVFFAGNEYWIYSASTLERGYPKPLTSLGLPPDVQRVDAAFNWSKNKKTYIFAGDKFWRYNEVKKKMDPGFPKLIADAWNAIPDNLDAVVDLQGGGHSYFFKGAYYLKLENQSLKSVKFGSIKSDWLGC
As to the kind of experiment: In vitro MMP-2 inhibition test.
Text: as §1
as §2, with “MMP-2” for “MMP-8”, “902-MP)” for “908-MP)”, “pipetted” for “pipette”, “2” for “0.5”
as §3

A value given as a limit tells only on which side of the number the result lay.

T1 sequence (P22894 101-467): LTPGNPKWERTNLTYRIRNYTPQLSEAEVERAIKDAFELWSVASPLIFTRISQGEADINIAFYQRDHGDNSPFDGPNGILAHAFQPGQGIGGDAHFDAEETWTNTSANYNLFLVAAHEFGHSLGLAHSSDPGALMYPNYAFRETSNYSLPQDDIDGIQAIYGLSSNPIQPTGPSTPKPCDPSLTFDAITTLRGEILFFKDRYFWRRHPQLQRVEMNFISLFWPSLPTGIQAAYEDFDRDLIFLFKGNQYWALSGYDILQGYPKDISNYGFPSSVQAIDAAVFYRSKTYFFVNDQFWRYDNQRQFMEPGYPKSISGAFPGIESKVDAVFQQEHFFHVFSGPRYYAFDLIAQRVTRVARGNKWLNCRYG

Take `O=C(O)[C@H]1[C@H](Cn2nnc3ccccc3c2=O)CC[C@@H]1C(=O)c1ccc(-c2ccc(Cl)cc2)cc1` (racemic) [Comparative Example A-1, (1RS,2RS,5SR)-2-[(4′-chlorobiphenyl-4-yl)carbonyl]-5-[(4-oxo-1,2,3-benzotriazin-3(4H)-yl)methyl]cyclopentanecarboxylic acid (racemate)]: the IC50 against MMP-8 was less than 0.61 nM; on MMP-1, 220 nM; against MMP-2, 1.1 nM.
Regarding `CCCCCOc1ccc(C(=O)CC(CCn2nnc3ccccc3c2=O)C(=O)O)cc1` (racemic) [Comparative Example B-1, (+/−)-4-Oxo-2-[2-(4-oxo-1,2,3-benzotriazin-3(4H)-yl)ethyl]-4-[4-(pentyloxy)phenyl]butanoic acid (racemate)], the figures for the IC50 on MMP-8, against MMP-1 and at MMP-2 were 706 nM, more than 40000 nM and 450 nM, respectively.
In the case of `O=C(O)[C@H]1[C@H](Cn2nnc3ccccc3c2=O)CC[C@@H]1C(=O)c1ccc(OCc2ccccc2)cc1` (racemic) [Example 1, (+/−)-(1RS,2RS,5SR)-2-[4-(Benzyloxy)benzoyl]-5-[(4-oxo-1,2,3-benzotriazin-3(4H)-yl)methyl]cyclopentanecarboxylic acid (racemate)], the IC50 on MMP-8 was 9.2 nM; at MMP-1, 12000 nM; at MMP-2, 18 nM.
On the same counts, the results for `CCCCCOc1ccc(C(=O)CC(CCn2nnc3ccccc3c2=O)C(=O)O)cc1` (single isomer, unassigned; enantiomer 1) [Comparative Example B-2, (+)-4-Oxo-2-[2-(4-oxo-1,2,3-benzotriazin-3(4H)-yl)ethyl]-4-[4-(pentyloxy)phenyl]butanoic acid (enantiomer 1)] are 275 nM, more than 40000 nM and 120 nM.
On the same counts, the results for `O=C(O)[C@@H]1[C@@H](Cn2nnc3ccccc3c2=O)CC[C@H]1C(=O)c1ccc(-c2ccc(Cl)cc2)cc1` (single isomer, unassigned; enantiomer 2) [Comparative Example A-3, (1RS,2RS,5SR)-2-[(4′-Chlorobiphenyl-4-yl)carbonyl]-5-[(4-oxo-1,2,3-benzotriazin-3(4H)-yl)methyl]cyclopentanecarboxylic acid (enantiomer 2)] are less than 0.61 nM, 135 nM and 0.7 nM.
For `O=C(O)[C@H]1[C@H](Cn2nnc3ccccc3c2=O)CC[C@@H]1C(=O)c1ccc(OCc2ccccc2)cc1` [Example 2, (+)-(1S,2S,5R)-2-[4-(Benzyloxy)benzoyl]-5-[(4-oxo-1,2,3-benzotriazin-3(4H)-yl)methyl]cyclopentanecarboxylic acid] the same measures were 10.1 nM, 5800 nM and 11.8 nM.
